Laboratory results taken from PubChem BioAssay AID1963849 (Molecular Pharmacology Branch, DTP, NCI, 2024).

System: 299254-011-R-J1-PDC complex spheroid viability
Assay: Anticancer human tumor 299254-011-R-J1-PDC patient-derived melanoma cell line growth inhibition [POLQ]
Conditions: for IC50: curve of first compound; for viability, T/C: stronger effect = lower value
Method in brief: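 Growth inhibition in 3D: complex spheroids (tumor PDC, HUVEC, MSC) treated with POLQ inhibitor combinations; where Cmax unknown, highest tested concentration 10 microM, except SN-38 at 1 microM.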

[1] = second compound 0.0316 µM, first compound 0.0316 µM
[2] = second compound 0.0316 µM, first compound 0.1 µM
[3] = second compound 0.0316 µM, first compound 0.316 µM
[4] = second compound 0.0316 µM, first compound 1 µM
[5] = second compound 0.0316 µM, first compound 3.16 µM
[6] = second compound 0.0316 µM, first compound 10 µM
[7] = second compound 0.1 µM, first compound 0.0316 µM
[8] = second compound 0.1 µM, first compound 0.1 µM
[9] = second compound 0.1 µM, first compound 0.316 µM
[10] = second compound 0.1 µM, first compound 1 µM
[11] = second compound 0.1 µM, first compound 3.16 µM
[12] = second compound 0.1 µM, first compound 10 µM
[13] = second compound 0.316 µM, first compound 0.0316 µM
[14] = second compound 0.316 µM, first compound 0.1 µM
[15] = second compound 0.316 µM, first compound 0.316 µM
[16] = second compound 0.316 µM, first compound 1 µM
[17] = second compound 0.316 µM, first compound 3.16 µM
[18] = second compound 0.316 µM, first compound 10 µM
[19] = second compound 1 µM, first compound 0.0316 µM
[20] = second compound 1 µM, first compound 0.1 µM
[21] = second compound 1 µM, first compound 0.316 µM
[22] = second compound 1 µM, first compound 1 µM
[23] = second compound 1 µM, first compound 3.16 µM
[24] = second compound 1 µM, first compound 10 µM
[25] = second compound 3.16 µM, first compound 0.0316 µM
[26] = second compound 3.16 µM, first compound 0.1 µM
[27] = second compound 3.16 µM, first compound 0.316 µM
[28] = second compound 3.16 µM, first compound 1 µM
[29] = second compound 3.16 µM, first compound 3.16 µM
[30] = second compound 3.16 µM, first compound 10 µM
[31] = second compound 10 µM, first compound 0.0316 µM
[32] = second compound 10 µM, first compound 0.1 µM
[33] = second compound 10 µM, first compound 0.316 µM
[34] = second compound 10 µM, first compound 1 µM
[35] = second compound 10 µM, first compound 3.16 µM
[36] = second compound 10 µM, first compound 10 µM
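Note: spheroids exposed to drugs for one week before measurement.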
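Throughout, for viability, T/C: percent viability relative to DMSO vehicle control taken as 100%.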

In the case of `COc1cc(C2c3cc4c(cc3C(OC3OC5COC(C)OC5C(O)C3O)C3COC(=O)C23)OCO4)cc(OC)c1O` (stereo unspecified) + Nc1ccc(C#CCN(C(=O)Cc2ncc(C(F)(F)F)cc2C(F)(F)F)c2ccc(F)cc2)nn1, the IC50 (second compound 0.0316 µM) is reported as > 10 µM, the IC50 (second compound 0.1 µM) is reported as > 10 µM and the IC50 (second compound 0.316 µM) is reported as > 10 µM. For the same molecule, the IC50 (second compound 1 µM) was > 10 µM, the IC50 (second compound 3.16 µM) was > 10 µM and the IC50 (second compound 10 µM) was > 10 µM. For the same molecule, the viability, T/C [1] was 112%, the viability, T/C [2] was 105% and the viability, T/C [3] was 87.5%. For the same molecule, the viability, T/C [4] was 92.2%, the viability, T/C [5] was 78.7% and the viability, T/C [6] was 63.5%. It also gave a viability, T/C [7] of 112%, a viability, T/C [8] of 94.4% and a viability, T/C [9] of 112%. It also gave a viability, T/C [10] of 84.5%, a viability, T/C [11] of 89.7% and a viability, T/C [12] of 69.7%. For the same molecule, the viability, T/C [13] was 114%, the viability, T/C [14] was 100% and the viability, T/C [15] was 88.5%. The viability, T/C [16] was 106%, the viability, T/C [17] was 83.7% and the viability, T/C [18] was 74.8%. It also gave a viability, T/C [19] of 108%, a viability, T/C [20] of 99.2% and a viability, T/C [21] of 90.3%. It also gave a viability, T/C [22] of 99.6%, a viability, T/C [23] of 71.8% and a viability, T/C [24] of 82.3%. The viability, T/C [25] was 99.7%, the viability, T/C [26] was 102% and the viability, T/C [27] was 88.9%. For the same molecule, the viability, T/C [28] was 80.7%, the viability, T/C [29] was 76.8% and the viability, T/C [30] was 69.3%. For the same molecule, the viability, T/C [31] was 98.8%, the viability, T/C [32] was 100% and the viability, T/C [33] was 89.9%. The viability, T/C [34] was 75.5%, the viability, T/C [35] was 89.1% and the viability, T/C [36] was 71.7%.
For `Nc1ccn(C2OC(CO)C(O)C2(F)F)c(=O)n1` (stereo unspecified) + Nc1ccc(C#CCN(C(=O)Cc2ncc(C(F)(F)F)cc2C(F)(F)F)c2ccc(F)cc2)nn1, the IC50 (second compound 0.0316 µM) was 0.123 µM, the IC50 (second compound 0.1 µM) was 0.351 µM and the IC50 (second compound 0.316 µM) was 0.0827 µM. The IC50 (second compound 1 µM) was 0.252 µM, the IC50 (second compound 3.16 µM) was 0.144 µM and the IC50 (second compound 10 µM) was 0.277 µM. It also gave a viability, T/C [1] of 71.9%, a viability, T/C [2] of 54.2% and a viability, T/C [3] of 33.7%. The viability, T/C [4] was 50.7%, the viability, T/C [5] was 51.7% and the viability, T/C [6] was 47.1%. The viability, T/C [7] was 60.7%, the viability, T/C [8] was 54.7% and the viability, T/C [9] was 49.6%. It also gave a viability, T/C [10] of 48.5%, a viability, T/C [11] of 46% and a viability, T/C [12] of 46.9%. For the same molecule, the viability, T/C [13] was 90%, the viability, T/C [14] was 41.4% and the viability, T/C [15] was 49.6%. It also gave a viability, T/C [16] of 37.7%, a viability, T/C [17] of 43.7% and a viability, T/C [18] of 38.2%. For the same molecule, the viability, T/C [19] was 86.2%, the viability, T/C [20] was 69.2% and the viability, T/C [21] was 45.1%. It also gave a viability, T/C [22] of 45.7%, a viability, T/C [23] of 48% and a viability, T/C [24] of 36.4%. The viability, T/C [25] was 73.7%, the viability, T/C [26] was 51.5% and the viability, T/C [27] was 47%. The viability, T/C [28] was 42.1%, the viability, T/C [29] was 37.7% and the viability, T/C [30] was 43.5%. For the same molecule, the viability, T/C [31] was 80%, the viability, T/C [32] was 91.5% and the viability, T/C [33] was 45.4%. The viability, T/C [34] was 36.9%, the viability, T/C [35] was 39.7% and the viability, T/C [36] was 45%.
For `O=c1[nH]cc(F)c(=O)[nH]1` + Nc1ccc(C#CCN(C(=O)Cc2ncc(C(F)(F)F)cc2C(F)(F)F)c2ccc(F)cc2)nn1, the IC50 (second compound 0.0316 µM) was > 10 µM, the IC50 (second compound 0.1 µM) was > 10 µM and the IC50 (second compound 0.316 µM) was > 10 µM. For the same molecule, the IC50 (second compound 1 µM) was > 10 µM, the IC50 (second compound 3.16 µM) was > 10 µM and the IC50 (second compound 10 µM) was > 10 µM. For the same molecule, the viability, T/C [1] was 92.7%, the viability, T/C [2] was 111% and the viability, T/C [3] was 101%. For the same molecule, the viability, T/C [4] was 113%, the viability, T/C [5] was 89.8% and the viability, T/C [6] was 81.4%. The viability, T/C [7] was 103%, the viability, T/C [8] was 91.2% and the viability, T/C [9] was 119%. For the same molecule, the viability, T/C [10] was 87%, the viability, T/C [11] was 82.5% and the viability, T/C [12] was 85.3%. The viability, T/C [13] was 92%, the viability, T/C [14] was 93.3% and the viability, T/C [15] was 101%. For the same molecule, the viability, T/C [16] was 101%, the viability, T/C [17] was 95.1% and the viability, T/C [18] was 68%. It also gave a viability, T/C [19] of 116%, a viability, T/C [20] of 99.8% and a viability, T/C [21] of 95.1%. The viability, T/C [22] was 85.6%, the viability, T/C [23] was 91.5% and the viability, T/C [24] was 78.5%. The viability, T/C [25] was 104%, the viability, T/C [26] was 95% and the viability, T/C [27] was 101%. It also gave a viability, T/C [28] of 96.8%, a viability, T/C [29] of 84.3% and a viability, T/C [30] of 89.5%. The viability, T/C [31] was 91.1%, the viability, T/C [32] was 94.2% and the viability, T/C [33] was 101%. For the same molecule, the viability, T/C [34] was 95.4%, the viability, T/C [35] was 88.7% and the viability, T/C [36] was 69.1%.
